Laboratory results as given in patent publication US20110144348A1, “VOLTAGE-SENSITIVE DYE AND METHOD OF PREPARING THE SAME” (Electronics and Telecommunications Research Institute, priority 2009, published 2011).

Key:
[1] = used in vitro to dye a cell; cited from earlier work
[2] = sensitivity of the VSD according to an external voltage (FIGS. 4A and 4B); details: electrical stimulation=500 mA; compared with Di-4-ANEPPS
Text: VSD according to an external voltage, and FIG. 4B is a diagram showing sensitivity of the VSD of the exemplary embodiment of the present invention according to an external voltage.
Referring to FIGS. 4A and 4B, sensitivities according to a voltage between the conventional VSD (Di-4-ANEPPS) in FIG. 4A and the VSD according to the exemplary embodiment of the present invention (ETRI-Di-8) in FIG. 4B are compared (electrical stimulation=500 mA).

SMILES	sensitivity to an electric field [1]	voltage sensitivity relative to Di-4-ANEPPS [2]
CCCCN(CCCC)c1ccc2cc(/C=C/c3cc[n+](CCCS(=O)(=O)[O-])cc3)ccc2c1 [Di-4-ANEPPS]	approximately 10 % per 100 mV	
O=S1(=O)CCCO1 [ETRI-Di-8]		three
